These results are taken from patent publication US20110092703A1, “P2X4 RECEPTOR ANTAGONIST” (NIPPON CHEMIPHAR CO., LTD., priority 2007, published 2011).

Structures can show the parent of a compound that is named as a salt.

The target of data set [1] is T1, human Serotonin transporter (Homo sapiens, UniProt P31645).
T1 construct: expressed in transfected cells; cell membranes
The data set is described as follows: [3H]paroxetine binding to serotonin transporter. To be noted: read-out: Percent inhibition (10^−7 M). The procedure:
After incubation for 60 min at 25° C., the reaction was terminated by rapid filtration through GF/B glass fiber filter and rinsed with ice-cold incubation buffer. The retained radioactivity on filter was measured by a liquid scintillation counter. Nonspecific binding was defined with 10 μM imipramine and subtracted from total binding to determine specific binding. Inhibition activities of tested compounds were determined as a percent inhibition of the specific binding.

The target in data set [2] is T2, P2X4 receptor (Homo sapiens, UniProt Q99571).
T2 sequence (Q99571 1-388): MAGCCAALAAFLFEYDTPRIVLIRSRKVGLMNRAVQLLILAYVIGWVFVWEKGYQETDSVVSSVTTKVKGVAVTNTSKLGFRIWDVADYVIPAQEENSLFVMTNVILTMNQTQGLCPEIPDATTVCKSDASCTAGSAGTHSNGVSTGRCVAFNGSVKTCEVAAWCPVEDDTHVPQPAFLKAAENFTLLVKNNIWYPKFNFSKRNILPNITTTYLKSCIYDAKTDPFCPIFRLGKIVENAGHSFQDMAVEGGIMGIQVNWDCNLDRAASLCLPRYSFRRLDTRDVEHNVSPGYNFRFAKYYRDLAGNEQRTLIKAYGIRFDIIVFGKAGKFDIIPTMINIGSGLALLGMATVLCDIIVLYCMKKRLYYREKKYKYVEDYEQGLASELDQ
In words: P2X4 antagonism study by measurement of intracellular Ca2+ influx response. Set-up: expressed in transfected cells. It counts as cell-based. Conditions: 1321N1 cells stably expressing human P2X4; 1 μM ATP; compound 15 min before ATP; Fura-2 F340/F380; read-out: Inhibitory activity: IC50. Here is the method:
(§1) 1321N1 cells stably expressing human P2X4 receptors were adopted for calcium influx assay. P2X4/1321N1 cells were plated in 96-well assay plate and cultured 24 hours in an atmosphere of 5% CO2 at 37° C. Fura-2 AM calcium indicator in assay buffer (150 mM NaCl, 5 mM KCl, 1.8 mM CaCl2, 1.2 mM MgCl2, 10 mM D-glucose and 25 mM HEPES, pH 7.4) was loaded onto cells for 1 hour at room temperature and the fluorescence was detected by FLUOstar Optima micro plate reader (BMG labtech). The cells were alternatively illuminated with two excitations wavelengths (340 nm and 380 nm) via xenon lamp and the emitted fluorescence was measured at 510 nm. The fluorescence changes after the treatment of 1 μM ATP were monitored and determined the fluorescence ratio (F340/F380) as the index of intracellular calcium change. Tested compound were treated to cells 15 min before the addition of ATP and the inhibition activity of compounds was calculated by comparing the Ca^2+ response with control in the absence of tested compound.
as §1, with “pH7.4)” for “pH 7.4)”

The target in data set [3] is T3, serotonin reuptake (Rattus norvegicus, UniProt P31652).
T3 construct: synaptosomes prepared from the rat brain; from tissue; host or cells: rat brain synaptosomes
In words: Serotonin reuptake inhibition assay ([3H]serotonin, synaptosomes prepared from the rat brain). Format: biochemical. To be noted: 10^−7 M compound, 15 min at 37° C., read-out: Percent inhibition (10^−7 M).
Method: 100 μg of the synaptosomes prepared from the rat brain were incubated for 15 min at 37° C. with 0.1 μCi [^3H]serotonin in the presence of tested compound in a buffer containing 106.2 mM NaCl, 4.5 mM KCl, 2.25 mM MgSO4, 1.08 mM NaH2PO4, 22.5 mM NaHCO3, 9.9 mM glucose, 9 μM EGTA and 45 μM ascorbic acid (pH 7.4). Basal control activity was determined by incubating the same mixture for 15 min at 4′C in the presence of 10 μM imipramine. Following incubation, the samples were filtered rapidly under vacuum through GF/B glass fiber filters and rinsed twice with ice-cold incubation buffer using a cell harvester. The retained radioactivity on filters was measured in TopCount scintillation counter. The results were expressed as a percent inhibition of the specific binding in the absence of tested compound.
100 μg of the synaptosomes prepared from the rat brain were incubated for 15 min at 37° C. with 0.1 μCi [^3H]serotonin in the presence of tested compound in a buffer containing 106.2 mM NaCl, 4.5 mM KCl, 2.25 mM MgSO4, 1.08 mm NaH2PO4, 22.5 mM NaHCO3, 9.9 mM glucose, 9 μM EGTA and 45 μM ascorbic acid (pH 7.4). Basal control activity was determined by incubating the same mixture for 15 min at 4° C. in the presence of 10 μM imipramine. […] The retained radioactivity on filters was measured in TopCount scintillation counter. […]

The target in data set [4] is T2, P2X4 receptor. To be noted: disclosed in WO 2007/049825 / Abstract P3-N-114; cited from earlier work.

T1 sequence (P31645 whole entry): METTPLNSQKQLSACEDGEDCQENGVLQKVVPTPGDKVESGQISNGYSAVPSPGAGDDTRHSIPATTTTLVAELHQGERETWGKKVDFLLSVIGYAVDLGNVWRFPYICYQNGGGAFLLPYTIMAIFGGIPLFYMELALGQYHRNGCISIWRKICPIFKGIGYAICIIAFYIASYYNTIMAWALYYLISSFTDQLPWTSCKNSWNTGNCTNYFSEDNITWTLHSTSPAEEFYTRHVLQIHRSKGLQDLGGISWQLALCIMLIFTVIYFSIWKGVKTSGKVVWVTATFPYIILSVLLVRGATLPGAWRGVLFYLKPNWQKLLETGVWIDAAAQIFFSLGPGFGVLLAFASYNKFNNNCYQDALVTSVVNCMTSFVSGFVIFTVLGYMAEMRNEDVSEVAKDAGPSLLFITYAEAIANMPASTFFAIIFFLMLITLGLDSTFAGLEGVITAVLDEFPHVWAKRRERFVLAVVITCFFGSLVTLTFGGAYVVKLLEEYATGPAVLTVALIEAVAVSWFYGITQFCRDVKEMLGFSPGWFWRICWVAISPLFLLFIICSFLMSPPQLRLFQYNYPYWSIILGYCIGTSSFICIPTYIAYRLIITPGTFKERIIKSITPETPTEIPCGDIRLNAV
T3 sequence (P31652 whole entry): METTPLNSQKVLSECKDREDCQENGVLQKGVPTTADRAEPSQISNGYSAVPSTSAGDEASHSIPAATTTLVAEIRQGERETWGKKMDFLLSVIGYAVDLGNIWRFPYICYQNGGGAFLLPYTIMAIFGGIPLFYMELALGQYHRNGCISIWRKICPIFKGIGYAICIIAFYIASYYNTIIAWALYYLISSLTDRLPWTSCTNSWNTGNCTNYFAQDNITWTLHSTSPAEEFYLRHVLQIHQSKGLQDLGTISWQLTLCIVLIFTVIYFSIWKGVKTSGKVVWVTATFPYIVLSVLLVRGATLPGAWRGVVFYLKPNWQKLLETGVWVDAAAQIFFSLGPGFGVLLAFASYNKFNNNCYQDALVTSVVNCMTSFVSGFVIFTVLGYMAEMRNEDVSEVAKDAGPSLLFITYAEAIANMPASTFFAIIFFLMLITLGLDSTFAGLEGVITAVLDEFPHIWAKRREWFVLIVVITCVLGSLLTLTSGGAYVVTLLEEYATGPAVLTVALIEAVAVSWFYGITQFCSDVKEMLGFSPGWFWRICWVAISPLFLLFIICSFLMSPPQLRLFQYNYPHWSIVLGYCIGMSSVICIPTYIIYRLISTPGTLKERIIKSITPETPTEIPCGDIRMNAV

`Cc1cccc(C)c1N1CCNCC1COc1ccc(Cl)cc1.Cl` (centres unmarked): the melting point was 97 to 100 °C.
Turning to `CC(C)c1ccc(N2CCNCC2COc2ccc(Cl)cc2)cc1` (centres unmarked) [Example 1, 2-(4-Chlorophenoxymethyl)-1-(4-isopropylphenyl)piperazine hydrochloride], the inhibition at 0.1 µM in data set [1] amounted to 17%. In addition, the 50% inhibitory concentration (IC50) in data set [2] was determined as 6.9 µM.
As to `CCCc1ccc(N2CCNCC2COc2ccc(Cl)cc2)cc1` (centres unmarked) [Example 2, 2-(4-Chlorophenoxymethyl)-1-(4-propylphenyl)piperazine hydrochloride], in data set [1], the inhibition at 0.1 µM was found to be 31%. For the same molecule, in data set [2], the 50% inhibitory concentration (IC50) turned out to be 7.6 µM.
`CC(C)c1cccc(N2CCNCC2COc2ccc(Cl)cc2)c1` (centres unmarked) [Example 3, 2-(4-Chlorophenoxymethyl)-1-(3-isopropylphenyl)piperazine hydrochloride]: in data set [1], the inhibition at 0.1 µM is 13%. The IC50 in data set [2] turned out to be 8.3 µM.
For the molecule `Cc1cc(C)c(N2CCNCC2COc2ccc(Cl)cc2)c(C)c1` (centres unmarked) [Example 7, 2-(4-Chlorophenoxymethyl)-1-(2,4,6-trimethylphenyl)piperazine hydrochloride], the inhibition at 0.1 µM in data set [1] was found to be 26%. Besides, the IC50 in data set [2] worked out at 3.1 µM.
Regarding `Clc1ccc(OCC2CNCCN2c2ccc3c(c2)CCC3)cc1` (centres unmarked) [Example 10, 2-(4-Chlorophenoxymethyl)-1-indan-5-yl-piperazine hydrochloride], the inhibition at 0.1 µM in data set [1] was found to be 44%. For the same molecule, the 50% inhibitory concentration (IC50) in data set [2] stood at 4.7 µM.
For `CC(C)c1ccc(N2CCNCC2COc2ccc3c(c2)OCO3)cc1` (centres unmarked) [Example 11, 1-(4-Isopropylphenyl)-2-(3,4-methylenedioxyphenoxymethyl)piperazine hydrochloride], in data set [2], the 50% inhibitory concentration (IC50) was 7.4 µM.
On the same count and under the same terms, as for `CC(C)c1cccc(N2CCNCC2COc2ccc(OC(C)(C)C)cc2)c1` (centres unmarked) [Example 13, 2-(4-tert-Butoxyphenoxymethyl)-1-(3-isopropylphenyl)piperazine hydrochloride], the figure is 2.9 µM.
Still for that read-out and setting: as for `CC(C)c1ccc(N2CCNCC2COc2ccc(S(N)(=O)=O)cc2)cc1` (centres unmarked) [Example 15, 1-(4-Isopropylphenyl)-2-(4-sulfamoylphenoxymethyl)piperazine hydrochloride], the figure is 6.3 µM.
On to `CC(C)NS(=O)(=O)c1ccc(OCC2CNCCN2c2ccc(C(C)C)cc2)cc1` (centres unmarked) [Example 16, 1-(4-Isopropylphenyl)-2-[4-(isopropylsulfamoyl)phenoxymethyl]piperazine hydrochloride], for which the inhibition at 0.1 µM in data set [3] was found to be 11%. Moreover, in data set [2], the 50% inhibitory concentration (IC50) was 2.8 µM.
For `CC(C)c1ccc(N2CCNCC2CSc2ccc(Cl)cc2)cc1` (centres unmarked) [Example 17, 2-(4-Chlorophenylsulfanylmethyl)-1-(4-isopropylphenyl)piperazine hydrochloride] the same measures were 4% and 8.1 µM.
Turning to `Fc1ccc([C@@H]2CCNC[C@H]2COc2ccc3c(c2)OCO3)cc1` [Paroxetine], the “P2X4 receptor antagonism (in words)” value in data set [4] is on record as “shows P2X4 receptor antagonism”.
For `CN(C)CCCN1c2ccccc2CCc2ccccc21` [imipramine], the “P2X4 receptor antagonism (in words)” value in data set [4] is listed as “shows P2X4 receptor antagonism”.
